According to patent US20250179017A1 (GUANGDONG NEWOPP BIOPHARMACEUTICALS CO., LTD., priority 2022, published 2025):

Target: T1, human EP2 (PTGER2) (Homo sapiens, UniProt P43116)
T1 construct: Cayman Chemical (Human EP2 Reporter Assay Kit)
Assay: EP2 antagonist assay (HEK-293 CNG membrane potential cAMP assay / 293T SEAP reporter assay, PGE2-stimulated)
Assay type: cell-based
Details: EP2 antagonist activity; concentration for 50% inhibition of signal compared to DMSO
Source text: 1. The HEK-293 CNG (Cyclic Nucleotide Gated) cell line expressing a modified CNG channel that leads to cell membrane depolarization in response to elevated intracellular cAMP levels, which can be measured using a fluorescent membrane potential dye, was engineered to express human EP2 (PTGER2) or EP4 (EP4R). The resulting cell line ACTOne™ PTGER2 or ACTOne™ EP4R as well as the fluorescent membrane potential dye were purchased from eEnzyme (Gaithersburg, MD, US) and used in this assay. Briefly, cells were plated at 1.2×10^4 cells/well in 20 μL DMEM supplemented with 2% Fetal Bovine Serum (FBS, VWR International), 1x Penicillin/Streptomycin (GenClone), 0.2 μg/mL puromycin (InvivoGen) and 50 μg/mL G418 (InvivoGen) on a 384 well plate (Greiner). The next day, cells were dye-loaded with 20 μL/well of 1x Dye-loading solution (eENZYME) following the manufacturer's instruction. After 2 hours of incubation at room temperature (RT) in the dark, a pre-read was made to obtain the background signals using CLARIOstar plate reader (BMG LABTECH, Germany) with the following filter settings: excitation=530/20 nm, emission=590/20 nm. Next, a serial dilution of compound (plus a DMSO control) were added to the plate (5 μL/well) and the reaction was incubated at RT for 15 min before adding 5 μL of PGE2 to every well for a final concentration of 5 nM. All wells were duplicated. The plate was then further incubated at RT for 30 min prior to a final read with the same machine settings. Background-subtracted signals were used to calculate IC50 values.
2. Human EP2 and EP4 Reporter Assay Kits were purchased from Cayman Chemical (Ann Arbor, MI, USA). The assay was performed following the provided User Manual. Briefly, a reverse transfection was performed by seeding 6.0×10^4 of 293T cells (ATCC) to each well of the provided Strip Plate coated with a proprietary transfection complex containing DNA constructs for expressing human EP2 or EP4 and a cAMP response element regulated secreted alkaline phosphatase (SEAP) reporter, in 200 μL DMEM supplemented with 2% FBS and incubated for 20-24 hours at 37° C. with 5% CO2. After the incubation, the culture medium was carefully removed, and the cells were replenished with 150 μL pre-warmed serum-free medium. PGE2 and test compounds were prepared together at 4x the desired final concentration, and 50 μL was added to each assigned well with the final concentration of 13 nM and 2 nM PGE2 for EP2 and EP4 assay, respectively. After 6-8 hours of incubation, 10 μL media from each well was transferred to corresponding well of a new plate, which was then sealed and incubated at 65° C. for 30 min. The plate was then cooled down to RT and 50 μL SEAP substrate was added to each well. Luminescence signal was measured using a CLARIOstar plate reader.
The IC50 value was determined as the concentration for 50% inhibition of signal compared to DMSO (A: IC50 […]; B: IC50 between 100 nM and 1,000 nM; C: IC50≥1,000 nM).

T1 sequence (P43116 whole entry): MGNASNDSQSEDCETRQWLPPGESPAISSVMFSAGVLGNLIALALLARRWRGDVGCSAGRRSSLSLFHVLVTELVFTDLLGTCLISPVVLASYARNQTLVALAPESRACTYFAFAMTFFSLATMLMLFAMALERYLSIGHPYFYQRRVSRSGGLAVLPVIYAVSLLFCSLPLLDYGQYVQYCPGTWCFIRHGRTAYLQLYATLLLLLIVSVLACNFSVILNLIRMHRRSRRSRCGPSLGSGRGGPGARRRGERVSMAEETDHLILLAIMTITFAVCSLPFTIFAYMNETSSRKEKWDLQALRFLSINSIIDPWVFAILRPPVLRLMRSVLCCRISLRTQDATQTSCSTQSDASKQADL

Row | Compound | IC50 [nM]
1 | CNC(=O)c1cccc(-c2cc(C(=O)NCc3ccc(C(=O)O)cc3)c3c(ccn3Cc3ccc(C(F)(F)F)cc3)c2)c1 [Example 116, 4-((5-(3-(methylcarbamoyl)phenyl)-1-(4-(trifluoromethyl)benzyl)-1H-indole-7-carboxamido)methyl)benzoic acid] | 100 to 1000
2 | C[C@@H](NC(=O)c1ccc(-c2cc(F)cc(F)c2)c2ccn(Cc3ccc(C(F)(F)F)cc3)c12)c1ccc(C(=O)O)cc1 [Example 32, (R)-4-(1-(4-(3,5-difluorophenyl)-1-(4-(trifluoromethyl)benzyl)-1H-indole-7-carboxamido)ethyl) benzoic acid] | ≥ 1000
3 | CN(c1ccccc1)c1cc(C(=O)NCc2ccc(C(=O)O)cc2)c2c(ccn2Cc2ccc(C(F)(F)F)cc2)c1 [Example 45, 4-((5-(methyl(phenyl)amino)-1-(4-(trifluoromethyl)benzyl)-1H-indole-7-carboxamido)methyl)benzoic acid] | 100 to 1000
4 | Nc1ccccc1-c1cc(C(=O)NCc2ccc(C(=O)O)cc2)c2c(ccn2Cc2ccc(C(F)(F)F)cc2)c1 [Example 93, 4-((5-(2-aminophenyl)-1-(4-(trifluoromethyl)benzyl)-1H-indole-7-carboxamido)methyl)benzoic acid] | 100 to 1000
5 | O=C(O)c1ccc(CNC(=O)c2ccc(Nc3ccc(Cl)c(F)c3)c3ccn(Cc4ccc(C(F)(F)F)cc4)c23)cc1 [Example 71, ((4-((4-chloro-3-fluorophenyl)amino)-1-(4-(trifluoromethyl)benzyl)-1H-indole-7-carboxamido)methyl)benzoic acid acid] | 100 to 1000
6 | O=C(O)c1ccc(C2(NC(=O)c3cc(Oc4ccccc4)cc4ccn(Cc5ccc(C(F)(F)F)cc5)c34)CC2)cc1 [Example 49, 4-(1-(5-phenoxy-1-(4-(trifluoromethyl)benzyl)-1H-indole-7-carboxamido)cyclopropyl)benzoic acid] | 100 to 1000

Other lines, results leading:

Row | IC50 [nM] | Compound
7 | < 100 | O=C(O)c1ccc(CNC(=O)c2cc(-c3cc(F)cc(F)c3)cc3cnn(Cc4ccc5ccccc5c4)c23)cc1 [Example 157, 4-((5-(3,5-difluorophenyl)-1-(naphthalen-2-ylmethyl)-1H-indazole-7-carboxamido)methyl)benzoic acid]
8 | < 100 | O=C(O)c1ccc(CNC(=O)c2cc(-c3ccccc3)cc3nnn(Cc4ccc(C(F)(F)F)cc4)c23)cc1 [Example 174, ((5-phenyl-1-(4-(trifluoromethyl)benzyl)-1H-benzo[d][1,2,3]triazole-7-carboxamido)methyl)benzoic acid]
9 | < 100 | NS(=O)(=O)c1cccc(-c2cc(C(=O)NCc3ccc(C(=O)O)cc3)c3c(ccn3Cc3ccc(C(F)(F)F)cc3)c2)c1 [Example 83, 4-((5-(3-sulfamoylphenyl)-1-(4-(trifluoromethyl)benzyl)-1H-indole-7-carboxamido)methyl)benzoic acid]
10 | < 100 | O=C(O)c1ccc(CNC(=O)c2cc(-c3ccc(F)c(F)c3)cc3cnn(Cc4ccc(-c5ccc(F)cc5)cc4)c23)cc1 [Example 187, 4-((5-(3,4-difluorophenyl)-1-((4′-fluoro-[1,1′-biphenyl]-4-yl)methyl)-1H-indazole-7-carboxamido)methyl)benzoic acid]
11 | < 100 | COc1cccc(Cn2ccc3cc(-c4ccccc4)cc(C(=O)NCc4ccc(C(=O)O)cc4)c32)c1 [Example 146, 4-((1-(3-methoxybenzyl)-5-phenyl-1H-indole-7-carboxamido)methyl)benzoic acid]
12 | < 100 | O=C(O)c1ccc(CNC(=O)c2cc(-c3cc(F)cc(F)c3)cc3cnn(Cc4ccc(-c5ccc(F)cc5)cc4)c23)cc1 [Example 186, 4-((5-(3,5-difluorophenyl)-1-((4′-fluoro-[1,1′-biphenyl]-4-yl)methyl)-1H-indazole-7-carboxamido)methyl)benzoic acid]
13 | < 100 | C[C@H](NC(=O)c1cc(-c2ccccc2)cc2cnn(Cc3ccc(-c4ccc(F)cc4)cc3)c12)c1ccc(C(=O)O)cc1 [Example 202, (S)-4-(1-(1-((4′-fluoro-[1,1′-biphenyl]-4-yl)methyl)-5-phenyl-1H-indazole-7-carboxamido)ethyl)benzoic acid]
